{"source": "patent US11613686B2", "about": "“Associative copolymers with hydrophobic quaternized (meth)acrylamide and (meth)acrylic acid derivatives” (BASF SE, priority 2018, dated 2023)", "test": "Solubility tests of monomer 1 in the monomer solution with auxiliary surfactants (additives)", "type": "physicochemical", "experimental": "In order to solubilize monomer 1 the monomer was first dissolved in ethanol and then added to the monomer solution. This approach is used for AIBN, which has a low solubility in the monomer solution, too. […] Therefore, the use of auxiliary surfactants (additives) was tested.\nThese tests were done in first instance with 0.1 mol % of 1-4."}
{"compound": "C=C(C)C(=O)NCCC[N+](C)(C)CCCCCCCCCCCC", "note": "[Monomer 1]", "values": [{"measurement": "Result (solubility of monomer 1)", "setting": "Additive 1 Aromox C/12 2-20 eq, additive 2 Disponil A 1080 0-5 eq, same recipe", "value": "Not soluble***"}, {"measurement": "Result (solubility of monomer 1)", "setting": "Additive 1 Aromox MCD 2-20 eq, additive 2 Disponil A 1080 0-5 eq, same recipe", "value": "Not soluble***"}, {"measurement": "Result (solubility of monomer 1)", "setting": "Additive 1 C14TAB 2-20 eq, additive 2 Disponil A 1080 0-5 eq, same recipe", "value": "Not soluble***"}, {"measurement": "Result (solubility of monomer 1)", "setting": "Additive 1 Dehyquart E-CA 2-20 eq, additive 2 Disponil A 1080 0-5 eq, same recipe", "value": "Not soluble***"}, {"measurement": "Result (solubility of monomer 1)", "setting": "Additive 1 Deriphat 160 C 2-20 eq, additive 2 Disponil A 1080 0-5 eq, same recipe", "value": "Not soluble***"}, {"measurement": "Result (solubility of monomer 1)", "setting": "Additive 1 Disponil A 1080 2-20 eq, no additive 2, same recipe", "value": "Partly dissolved"}, {"measurement": "Result (solubility of monomer 1)", "setting": "Additive 1 Glucopon 225DK 2-20 eq, additive 2 Disponil A 1080 0-5 eq, same recipe", "value": "Not soluble***"}, {"measurement": "Result (solubility of monomer 1)", "setting": "Additive 1 Lutensol AO 11 2-20 eq, additive 2 Disponil A 1080 0-5 eq, same recipe", "value": "Not soluble***"}, {"measurement": "Result (solubility of monomer 1)", "setting": "Additive 1 Lutensol AT 18 2-20 eq, additive 2 Disponil A 1080 0-5 eq, same recipe", "value": "Not soluble***"}, {"measurement": "Result (solubility of monomer 1)", "setting": "Additive 1 Lutensol TO 129 2-20 eq, additive 2 Disponil A 1080 0-5 eq, same recipe", "value": "Not soluble***"}, {"measurement": "Result (solubility of monomer 1)", "setting": "Additive 1 Lutensol XP 100 2-20 eq, additive 2 Disponil A 1080 0-5 eq, same recipe", "value": "Not soluble***"}, {"measurement": "Result (solubility of monomer 1)", "setting": "Additive 1 SDS 2-20 eq, additive 2 Disponil A 1080 0-5 eq, same recipe", "value": "Not soluble***"}, {"measurement": "Result (solubility of monomer 1)", "setting": "Additive 1 Texapon NSO 2-20 eq, additive 2 Disponil A 1080 0-5 eq, same recipe", "value": "Not soluble***"}, {"measurement": "Result (solubility of monomer 1)", "setting": "no additive, recipe 27 mol % sodium acrylate, 72.9 mol % acrylamide, 0.1 mol % 1", "value": "Not soluble***"}]}
